Biological target: recombinant human MAPKAP-K2 (Homo sapiens, UniProt P49137)
Test: Inhibition of MAPKAP-K2 enzyme activity (33P-ATP peptide substrate phosphorylation)
Type: biochemical
Conditions: recombinant human MAPKAP-K2 10 mU, room temperature 30 min, peptide substrate Lys-Lys-Leu-Asn-Arg-Thr-Leu-Ser-Val-Ala; read-out: Activity strength (IC50 against MAPKAP-K2)
Method: General Measurement Method for Determining Inhibition of MAPKAP-K2 Enzyme Activity
(Preparation of Solutions of Compounds)
Each compound was dissolved to DMSO to prepare a solution with a concentration of 20 mmol/L and this solution was stored at −20° C. This stock solution was diluted with DMSO successively to prepare solutions with 200-fold concentrations of a necessary range. These solutions were further diluted with water at a ratio of 1:20 to prepare solutions with 10-fold concentrations of a necessary range. Each of these solutions (5 μL) was used for each reaction in 50 μL-scale. Through the dilution series of all compounds, the final DMSO concentration was kept at 0.5%. Conventional tests for the compounds were carried out at a final concentration ranging from 100 μmol/L to 0.03 μmol/L, but in some cases, tests were carried out at lower concentrations, depending on activity.
(Measurements of MAPKAP-K2 Enzyme Activity)
To a DMSO solution (5 μL) containing a test compound at 5%, a solution (25 μL) containing a peptide substrate [peptide substrate […], ATP 20 μmol/L, Tris buffer 60 mmol/L (pH 7.5), EGTA 0.2 mmol/L, β-mercaptoethanol 0.2%, magnesium acetate 20 mmol/L, [γ-33P]ATP 0.1 μCi (specific radioactivity ca. 110 TBq/mmol)] was added. The reaction was initiated by further adding a solution (20 μL) containing MAPKAP-K2 enzyme [recombinant human MAPKAP-K2 10 mU, Tris buffer 50 mmol/L (pH 7.5), EGTA 0.1 mmol/L, β-mercaptoethanol 0.1%, BSA 0.1%]. After the reaction was carried out at room temperature for 30 min, 200 mmol/L phosphoric acid (50 μL) was added to quench the reaction, and 90 μL of the reaction mixture was adsorbed on a multiscreen PH plate (Millipore). The plate was washed with 100 mmol/L phosphoric acid. After the plate was dried, 30 μL of MicroScint™-O (Perkin-Elmer) was added here, and the radioactivity (cpm) was measured on a scintillation counter to determine the inhibitory activity. The peptide substrate was Lys-Lys-Leu-Asn-Arg-Thr-Leu-Ser-Val-Ala.
(Note) % Reference=(X−B)/(Tot−B)×100 % Inhibition=100%−% Reference • X=count per minute of the well with a test compound • B=count per minute of the well without the enzyme • Tot=count per minute of the well with only DMSO solvent and without a test compound (Calculation of MAPKAP-K2 Inhibitory Activity) • IC50 value=a concentration of compound at which 50% inhibition is observed • The efficacy of each compound in Tables A to G against MAPKAP-K2 is listed in the following Table J.

Sequence of recombinant human MAPKAP-K2 (P49137 whole entry): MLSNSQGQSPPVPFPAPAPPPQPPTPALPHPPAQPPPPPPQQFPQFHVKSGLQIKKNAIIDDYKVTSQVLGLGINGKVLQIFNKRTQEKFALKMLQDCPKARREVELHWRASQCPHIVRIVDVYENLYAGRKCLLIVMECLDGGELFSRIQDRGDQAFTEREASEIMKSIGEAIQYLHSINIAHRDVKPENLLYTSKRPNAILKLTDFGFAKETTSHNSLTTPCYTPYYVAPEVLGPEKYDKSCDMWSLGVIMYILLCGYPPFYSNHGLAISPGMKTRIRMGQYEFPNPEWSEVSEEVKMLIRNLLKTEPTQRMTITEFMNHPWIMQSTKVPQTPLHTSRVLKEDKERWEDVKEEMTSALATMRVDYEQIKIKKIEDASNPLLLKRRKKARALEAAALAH

Compound | IC50 [µM]
CCOc1ccc(Nc2c3c(nc4ccnn24)N([C@H]2CC[C@H](N)CC2)CC3)cc1 [A-002] | < 10
CCOc1ccc(Nc2c3c(nc4ccnn24)N(C2CCCC(N)C2)CC3)cc1 (stereo not shown) [A-003] | 10 to 50
CCOc1ccc(Nc2c3c(nc4ccnn24)N([C@H]2CCCC[C@@H]2N)CC3)cc1 [A-004] | 50 to 100
CCOc1ccc(Nc2c3c(nc4ccnn24)N(CCN)CC3)cc1 [A-005] | < 10
CCOc1ccc(Nc2c3c(nc4ccnn24)N(CCCN)CC3)cc1 [A-006] | < 10
CCOc1ccc(Nc2c3c(nc4ccnn24)N(CC(C)(C)CN)CC3)cc1 [A-007] | 50 to 100
CCOc1ccc(Nc2c3c(nc4ccnn24)N([C@H]2CCCNC2)CC3)cc1 [A-008, (S)-(4-ethoxyphenyl)(5-piperidin-3-yl-6,7-dihydro-5H-1,4,5,8a-tetraaza-s-indacen-8-yl)amine] | < 10
CCOc1ccc(Nc2c3c(nc4ccnn24)N(C2CCNCC2)CC3)cc1 [A-009] | < 10
CCOc1ccc(Nc2c3c(nc4ccnn24)N(C2CCN(Cc4ccccc4)C2)CC3)cc1 (stereo not shown) [A-010] | 10 to 50
CCOc1ccc(Nc2c3c(nc4ccnn24)N(C2CCN(CC)C2)CC3)cc1 (stereo not shown) [A-012] | 10 to 50
CCOc1ccc(Nc2c3c(nc4ccnn24)N(C2CCNC2)CC3)cc1 (stereo not shown) [A-013] | < 10
CCOc1ccc(Nc2c3c(nc4ccnn24)N(CC2CCCNC2)CC3)cc1 (stereo not shown) [A-014] | 50 to 100
CCOc1ccc(Nc2c3c(nc4c(F)cnn24)N([C@H]2CCCNC2)CC3)cc1 [A-018, (S)-(4-Ethoxyphenyl)(3-fluoro-5-piperidin-3-yl-6,7-dihydro-5H-1,4,5,8a-tetraaza-s-indacen-8-yl)amine] | < 10
CCOc1ccc(Nc2c3c(nc4c(F)c(F)nn24)N([C@H]2CCCNC2)CC3)cc1 [A-019, (S)-(2,3-Difluoro-5-piperidin-3-yl-6,7-dihydro-5H-1,4,5,8a-tetraaza-s-indacen-8-yl)(4-ethoxyphenyl)amine] | 10 to 50
CCOc1ccc(Nc2c3c(nc4ccnn24)N(O)CC3)cc1 [A-020, 8-(4-ethoxyphenylamino)-6,7-dihydro-1,4,5,8a-tetraaza-s-indacen-5-ol] | < 10
Cc1nc2ccc(Nc3c4c(nc5ccnn35)N([C@H]3CCCNC3)CC4)cc2s1 [A-022, (S)-(2-methylbenzothiazol-6-yl)(5-piperidin-3-yl-6,7-dihydro-5H-1,4,5,8a-tetraaza-s-indacen-8-yl)amine] | < 10
COCCOc1ccc(Nc2c3c(nc4ccnn24)N([C@H]2CCCNC2)CC3)cc1 [A-023, (S)-[4-(2-methoxyethoxy)phenyl](5-piperidin-3-yl-6,7-dihydro-5H-1,4,5,8a-tetraaza-s-indacen-8-yl)amine] | < 10
CCOc1ccc(Nc2c3c(nc4ccnn24)N([C@H]2CCCNC2)C(CO)C3)cc1 (stereo partly drawn) [A-024, (S)-{8-(4-ethoxyphenylamino)-5-piperidin-3-yl-6,7-dihydro-5H-1,4,5,8a-tetraaza-s-indacen-6-yl]methanol] | < 10
c1ccc(CNc2c3c(nc4ccnn24)N([C@H]2CCCNC2)CC3)cc1 [A-025] | < 10
CC(C)(C)CNc1c2c(nc3ccnn13)N([C@H]1CCCNC1)CC2 [A-026] | < 10
c1cc2nc3c(c(NC4CCCC4)n2n1)CCN3[C@H]1CCCNC1 [A-027] | < 10
c1ccc(Nc2c3c(nc4ccnn24)N([C@H]2CCCNC2)CC3)cc1 [A-032] | < 10
c1cc2nc3c(c(Nc4ccc5cn[nH]c5c4)n2n1)CCN3[C@H]1CCCNC1 [A-058] | < 10
FC(F)(F)c1nc2cc(Nc3c4c(nc5ccnn35)N([C@H]3CCCNC3)CC4)ccc2[nH]1 [A-091] | < 10
Nc1c2c(nc3ccnn13)N([C@H]1CCCNC1)CC2 [A-092, (S)-5-piperidin-3-yl-6,7-dihydro-5H-1,4,5,8a-tetraaza-s-indacen-8-ylamine] | < 10
c1coc(Nc2c3c(nc4ccnn24)N([C@H]2CCCNC2)CC3)c1 [A-095, (S)-furan-2-yl-(5-piperidin-3-yl-6,7-dihydro-5H-1,4,5,8a-tetraaza-s-indacen-8-yl)amine] | < 10
CNc1c2c(nc3ccnn13)N([C@H]1CCCNC1)CC2 [A-096] | < 10
COC(=O)c1ccc(Nc2c3c(nc4ccnn24)N(C2CCCNC2)CC3)cc1 (stereo not shown) [A-099] | < 10
c1cc2nc3c(c(Nc4ccc5sccc5c4)n2n1)CCN3[C@H]1CCCNC1 [A-100] | < 10

Further lines, results first:

IC50 [µM] | Compound
< 10 | CCOc1ccc(Nc2c3c(nc4ccnn24)N([C@H]2CCCNC2)CCC3)cc1 [B-001]
< 10 | CCOc1ccc(Nc2c3c(nc4ccnn24)N([C@H]2CC[C@H](N)CC2)CCC3)cc1 [B-002, [5-(4-aminocyclohexyl)-5,6,7,8-tetrahydro-1,4,5,9a-tetraazacyclopenta[b]naphthalen-9-yl](4-ethoxyphenyl)amine]
10 to 50 | CCOc1ccc(Nc2c3c(nc4ccnn24)N([C@@H]2CCCC[C@@H]2N)CCC3)cc1 [B-003]
50 to 100 | CCOc1ccc(Nc2c3c(nc4ccnn24)N(CCN(C)C)CCC3)cc1 [B-007]
50 to 100 | CCOc1ccc(Nc2c3c(nc4ccnn24)N(C2CCCC(N)C2)CCC3)cc1 (stereo not shown) [B-013]
< 10 | CCOc1ccc(Nc2c3c(nc4ccnn24)N(C2CCCNC2)CCC3)cc1 (stereo not shown) [B-014]
10 to 50 | CCOc1ccc(Nc2c3c(nc4ccnn24)N(CCCN)CCC3)cc1 [B-015]
10 to 50 | CCOc1ccc(Nc2c3c(nc4ccnn24)N(C2CCN(Cc4ccccc4)C2)CCC3)cc1 (stereo not shown) [B-016]
< 10 | CCOc1ccc(Nc2c3c(nc4ccnn24)N(C2CCNCC2)CCC3)cc1 [B-017]
50 to 100 | CCOc1ccc(Nc2c3c(nc4ccnn24)N(Cc2cccnc2)CCC3)cc1 [B-018]
< 10 | CCOc1ccc(Nc2c3c(nc4ccnn24)N(C2CCNC2)CCC3)cc1 (stereo not shown) [B-021]
10 to 50 | CCOc1ccc(Nc2c3c(nc4ccnn24)N(C2CCN(CC)C2)CCC3)cc1 (stereo not shown) [B-022]
< 10 | CCOc1ccc(Nc2c3c(nc4ccnn24)N([C@H]2CCCNC2)CCCC3)cc1 [C-001, (S)-(4-ethoxyphenyl)(5-piperidin-3-yl-6,7,8,9-tetrahydro-5H-1,4,5,10a-tetraazacyclohepta[f]inden-10-yl)amine]
10 to 50 | CCOc1ccc(Nc2c3c(nc4ccnn24)N([C@H]2CCCNC2)C(=O)C3)cc1 [D-001]
50 to 100 | CCOc1ccc(Nc2c3c(nc4ccnn24)N(C[C@H]2CCCNC2)C(=O)C3)cc1 [D-002]
50 to 100 | CCOc1ccc(Nc2c3c(nc4ccnn24)N(CCN)C(=O)C3)cc1 [D-003]
10 to 50 | CCOc1ccc(Nc2c3c(nc4ccnn24)N([C@H]2CC[C@H](N)CC2)C(=O)C3)cc1 [D-006]
< 10 | CCOc1ccc(Nc2c3ccn([C@H]4CCCNC4)c3nc3ccnn23)cc1 [F-001, (S)-(4-ethoxyphenyl)(5-piperidin-3-yl-5H-14,5,8a-tetraaza-s-indacen-8-yl)amine]
10 to 50 | CCOc1ccc(Nc2c3cc(CO)n([C@H]4CCCNC4)c3nc3ccnn23)cc1 [F-002]
< 10 | CCOc1ccc(Nc2c3c(nc4ccnn24)N([C@H]2CCCNC2)CC=CC3)cc1 [G-001, (S)-(4-ethoxyphenyl)(5-piperidin-3-yl-6,9-dihydro-5H-1,4,5,10a-tetraazacyclohepta[f]inden-10-yl)amine]
